Laboratory results published in ChEMBL document CHEMBL1121547 (J Med Chem, 1980).

How the values were obtained:
[1] = target: GABA-A receptor; anion channel; assay: Displacement of [3H]gamma-aminobutyric acid from sodium-independent Gamma-aminobutyric acid (GABA-A) receptor synaptic membrane binding sites from rat brain tissue
[2] = target: GABA-A receptor; anion channel (Rattus norvegicus) (UniProt O09028+P15431+P18506+P18508+P19969+P20236+P23574+P23576+P28471+P28473+P30191+P62813+P63079+P63138+Q91ZM7+Q9ES14); assay: Relative binding affinity for sodium-independent Gamma-aminobutyric acid receptor synaptic membrane binding site in rat brain tissue; type: tissue-based
[3] = target: Gamma-aminobutyric acid receptor subunit gamma-1 (Rattus norvegicus, UniProt P23574); assay: […] of [3H]GABA at Gamma-aminobutyric acid receptor in rat brain membranes at 0.01 uM; type: cell membranes
Sequence of Gamma-aminobutyric acid receptor subunit gamma-1 (P23574 whole entry): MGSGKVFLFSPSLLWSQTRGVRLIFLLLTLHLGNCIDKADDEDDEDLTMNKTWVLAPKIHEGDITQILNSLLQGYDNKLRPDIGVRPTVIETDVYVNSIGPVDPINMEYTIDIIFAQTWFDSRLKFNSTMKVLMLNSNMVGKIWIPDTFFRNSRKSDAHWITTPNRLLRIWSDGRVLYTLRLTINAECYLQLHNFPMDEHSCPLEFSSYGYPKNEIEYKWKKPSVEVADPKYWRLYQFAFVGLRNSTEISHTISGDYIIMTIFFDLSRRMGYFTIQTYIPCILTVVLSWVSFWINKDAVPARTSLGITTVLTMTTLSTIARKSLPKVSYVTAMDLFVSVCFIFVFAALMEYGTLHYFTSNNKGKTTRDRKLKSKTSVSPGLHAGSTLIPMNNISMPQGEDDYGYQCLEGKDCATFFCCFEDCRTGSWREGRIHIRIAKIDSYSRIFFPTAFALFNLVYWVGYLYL

| SMILES | IC50 ([1]; read-out: IC50) | Relative affinity [2] | IC50 [1] | IC50 [3] |
| --- | --- | --- | --- | --- |
| NCc1cc(=O)[nH]o1 [MUSCIMOL] | 0.0032 µM | – | – | – |
| NCC1CCC1C(=O)O (racemic) | – | 6.9 | 0.00029 M l-1 | – |
| CN1CCc2cc3c(cc2[C@H]1[C@@H]1OC(=O)c2c1ccc1c2OCO1)OCO3 [BICUCULLINE] | – | 0.0056 | – | 3.8 µM |
| NCc1cc(O)no1 | – | 6.3 | – | – |
